Measured values as given in patent US20250098679A1, “HERBICIDAL PYRIDONE DERIVATIVES” (SYNGENTA CROP PROTECTION AG, priority 2021, published 2025).

Legend:
Format in all cases: in vivo
Details in all cases: evaluated after 13 days
Zea mays (ZEAMX) [1] = assay: Post-emergence Test, Zea mays (ZEAMX); parameters: key to percentage damage caused to the plant, ZEAMX (five-point scale): 5=81-100%, 4=61-80%, 3=41-60%, 2=21-40%, 1=0-20% damage
In short: (§1)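 Percent plant damage was rated 13 days post-application on a 1–5 scale (1=0-20%, 5=81-100%). Application used an aqueous acetone (50:50)/0.5% Tween 20 spray, normally 1000 g/ha, with controlled glasshouse conditions (24/16 °C, 14 h light, 65% humidity).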

Setaria faberi (SETFA) [2] = assay: Post-emergence Test, Setaria faberi (SETFA); parameters: key to percentage damage caused to the plant, SETFA (five-point scale): 5=81-100%, 4=61-80%, 3=41-60%, 2=21-40%, 1=0-20% damage
In short: as §1

[3] = tested on: Amaranthus retoflexus (AMARE); assay: Pre-emergence Test, Amaranthus retoflexus (AMARE)
[4] = tested on: Echinochloa crus-galli (ECHCG); assay: Pre-emergence Test, Echinochloa crus-galli (ECHCG)
[5] = tested on: Echinochloa crus-galli (ECHCG); assay: Post-emergence Test, Echinochloa crus-galli (ECHCG); parameters: key to percentage damage caused to the plant, ECHCG (five-point scale): 5=81-100%, 4=61-80%, 3=41-60%, 2=21-40%, 1=0-20% damage
In short: as §1

[6] = tested on: Amaranthus palmeri (AMAPA); assay: Pre-emergence Test, Amaranthus palmeri (AMAPA)
Zea mays (ZEAMX) [7] = assay: Pre-emergence Test, Zea mays (ZEAMX)
[8] = tested on: Ipomoea hederacea (IPOHE); assay: Pre-emergence Test, Ipomoea hederacea (IPOHE)
[9] = tested on: Ipomoea hederacea (IPOHE); assay: Post-emergence Test, Ipomoea hederacea (IPOHE); parameters: key to percentage damage caused to the plant, IPOHE (five-point scale): 5=81-100%, 4=61-80%, 3=41-60%, 2=21-40%, 1=0-20% damage
In short: as §1

[10] = tested on: Amaranthus palmeri (AMAPA); assay: Post-emergence Test, Amaranthus palmeri (AMAPA); parameters: key: 5=81-100%, 4=61-80%, 3=41-60%, 2=21-40%, 1=0-20% damage
In short: as §1

Setaria faberi (SETFA) [11] = assay: Pre-emergence Test, Setaria faberi (SETFA)
[12] = tested on: Amaranthus retoflexus (AMARE); assay: Post-emergence Test, Amaranthus retoflexus (AMARE); parameters: key to percentage damage caused to the plant, AMARE (five-point scale): 5=81-100%, 4=61-80%, 3=41-60%, 2=21-40%, 1=0-20% damage
In short: as §1

| SMILES | percentage damage caused to the plant, ZEAMX (five-point scale) (Zea mays (ZEAMX) [1]; 250 g/Ha) | percentage damage caused to the plant, ZEAMX (five-point scale) (Zea mays (ZEAMX) [1]; 1000 g/ha) | percentage damage caused to the plant, SETFA (five-point scale) (Setaria faberi (SETFA) [2]; 250 g/Ha) | percentage damage caused to the plant, SETFA (five-point scale) (Setaria faberi (SETFA) [2]; 1000 g/ha) | Pre-emergence Test AMARE, percentage damage caused to the plant (five-point scale) ([3]; 250 g/Ha (*)) | Pre-emergence Test AMARE, percentage damage caused to the plant (five-point scale) ([3]; 1000 g/ha) | Pre-emergence Test ECHCG, percentage damage caused to the plant (five-point scale) ([4]; 250 g/Ha (*)) | Pre-emergence Test ECHCG, percentage damage caused to the plant (five-point scale) ([4]; 1000 g/ha) | percentage damage caused to the plant, ECHCG (five-point scale) ([5]; 250 g/Ha) | percentage damage caused to the plant, ECHCG (five-point scale) ([5]; 1000 g/ha) | Pre-emergence Test AMAPA, percentage damage caused to the plant (five-point scale) ([6]; 1000 g/ha) | Pre-emergence Test ZEAMX, percentage damage caused to the plant (five-point scale) (Zea mays (ZEAMX) [7]; 1000 g/ha) | Pre-emergence Test IPOHE, percentage damage caused to the plant (five-point scale) ([8]; 1000 g/ha) | percentage damage caused to the plant, IPOHE (five-point scale) ([9]; 250 g/Ha) | percentage damage caused to the plant, IPOHE (five-point scale) ([9]; 1000 g/ha) | percentage damage caused to the plant, AMAPA (five-point scale) ([10]; 250 g/Ha) | percentage damage caused to the plant, AMAPA (five-point scale) ([10]; 1000 g/ha) | Pre-emergence Test SETFA, percentage damage caused to the plant (five-point scale) (Setaria faberi (SETFA) [11]; 1000 g/ha) | percentage damage caused to the plant, AMARE (five-point scale) ([12]; 250 g/Ha) | percentage damage caused to the plant, AMARE (five-point scale) ([12]; 1000 g/ha) | further results |
| --- | --- | --- | --- | --- | --- | --- | --- | --- | --- | --- | --- | --- | --- | --- | --- | --- | --- | --- | --- | --- | --- |
| CCn1c(Cn2cc(F)cn2)cc(=O)c(C(=O)O)c1-c1ccc(Cl)c(Cl)c1 [Compound 9, 2-(3,4-dichlorophenyl)-1-ethyl-6-[(4-fluoropyrazol-1-yl)methyl]-4-oxo-pyridine-3-carboxylic acid] | 0 | 2 (2=21-40%) | 4 (4=61-80%) | 3 (3=41-60%) | 0 | 1 (1=0-20%) | 5 (5=81-100%) | 5 (5=81-100%) | 3 (3=41-60%) | 4 (4=61-80%) | 2 (2=21-40%) | 0 | 0 | 3 (3=41-60%) | 1 (1=0-20%) | 0 | 1 (1=0-20%) | 5 (5=81-100%) | 0 | 0 | Pre-emergence Test AMAPA, percentage damage caused to the plant (five-point scale) ([6]; 250 g/Ha (*)): 1 (1=0-20%); Pre-emergence Test ZEAMX, percentage damage caused to the plant (five-point scale) (Zea mays (ZEAMX) [7]; 250 g/Ha (*)): 0; Pre-emergence Test IPOHE, percentage damage caused to the plant (five-point scale) ([8]; 250 g/Ha (*)): 1 (1=0-20%); Pre-emergence Test SETFA, percentage damage caused to the plant (five-point scale) (Setaria faberi (SETFA) [11]; 250 g/Ha (*)): 5 (5=81-100%) |
| CCn1c(Cn2cnc3ncccc32)cc(=O)c(C(=O)O)c1-c1ccc(Cl)c(Cl)c1 [Compound 125, 2-(3,4-dichlorophenyl)-1-ethyl-6-(imidazo[4,5-b]pyridin-1-ylmethyl)-4-oxo-pyridine-3-carboxylic acid] | 1 (1=0-20%) |  | 1 (1=0-20%) |  | 0 |  | 0 |  | 1 (1=0-20%) |  |  |  |  | 1 (1=0-20%) |  | 0 |  |  | 1 (1=0-20%) |  | Pre-emergence Test AMAPA, percentage damage caused to the plant (five-point scale) ([6]; 250 g/Ha (*)): 1 (1=0-20%); Pre-emergence Test ZEAMX, percentage damage caused to the plant (five-point scale) (Zea mays (ZEAMX) [7]; 250 g/Ha (*)): 0; Pre-emergence Test IPOHE, percentage damage caused to the plant (five-point scale) ([8]; 250 g/Ha (*)): 0; Pre-emergence Test SETFA, percentage damage caused to the plant (five-point scale) (Setaria faberi (SETFA) [11]; 250 g/Ha (*)): 1 (1=0-20%) |
| CCn1c(Cn2ccc(CC#N)n2)cc(=O)c(C(=O)O)c1-c1ccc(Cl)c(Cl)c1 [Compound 175, 6-[[3-(cyanomethyl)pyrazol-1-yl]methyl]-2-(3,4-dichlorophenyl)-1-ethyl-4-oxo-pyridine-3-carboxylic acid] | 0 | 1 (1=0-20%) | 0 | 3 (3=41-60%) |  | 0 |  | 1 (1=0-20%) | 1 (1=0-20%) | 2 (2=21-40%) | 0 | 0 | 1 (1=0-20%) | 1 (1=0-20%) | 2 (2=21-40%) | 0 | 0 | 3 (3=41-60%) | 0 | 0 |  |
| CCOC(=O)c1c(-c2ccc(Cl)c(Cl)c2)n(CC)c(Cn2ccc(Cl)n2)c(Br)c1=O [Compound 27, ethyl 5-bromo-6-[(3-chloropyrazo1-1-yl)methyl]-2-(3,4-dichlorophenyl)-1-ethyl-4-oxo-pyridine-3-carboxylate] |  | 0 |  | 0 |  | 1 (1=0-20%) |  | 0 |  | 0 | 0 | 0 | 0 |  | 0 |  | 0 | 0 |  | 0 |  |
| CCn1c(Cn2ccc(OC(F)F)n2)cc(=O)c(C(=O)O)c1-c1ccc(Cl)c(Cl)c1 [Compound 37, 2-(3,4-dichlorophenyl)-6-[[3-(difluoromethoxy)pyrazol-1-yl]methyl]-1-ethyl-4-oxo-pyridine-3-carboxylic acid] | 1 (1=0-20%) | 4 (4=61-80%) | 4 (4=61-80%) | 5 (5=81-100%) |  | 1 (1=0-20%) |  | 5 (5=81-100%) | 4 (4=61-80%) | 4 (4=61-80%) | 2 (2=21-40%) | 5 (5=81-100%) | 4 (4=61-80%) | 4 (4=61-80%) | 2 (2=21-40%) | 2 (2=21-40%) | 4 (4=61-80%) | 5 (5=81-100%) | 2 (2=21-40%) | 1 (1=0-20%) |  |
| CCn1c(Cn2ncc3cnc(Cl)cc32)cc(=O)c(C(=O)O)c1-c1ccc(Cl)c(Cl)c1 [Compound 75, 6-[(6-chloropyrazolo[4,3-c]pyridin-1-yl)methyl]-2-(3,4-dichlorophenyl)-1-ethyl-4-oxo-pyridine-3-carboxylic acid] | 0 |  | 0 |  | 1 (1=0-20%) |  | 1 (1=0-20%) |  | 1 (1=0-20%) |  |  |  |  | 0 |  | 1 (1=0-20%) |  |  | 1 (1=0-20%) |  | Pre-emergence Test AMAPA, percentage damage caused to the plant (five-point scale) ([6]; 250 g/Ha (*)): 1 (1=0-20%); Pre-emergence Test ZEAMX, percentage damage caused to the plant (five-point scale) (Zea mays (ZEAMX) [7]; 250 g/Ha (*)): 0; Pre-emergence Test IPOHE, percentage damage caused to the plant (five-point scale) ([8]; 250 g/Ha (*)): 0; Pre-emergence Test SETFA, percentage damage caused to the plant (five-point scale) (Setaria faberi (SETFA) [11]; 250 g/Ha (*)): 1 (1=0-20%) |
